Results published in patent US20140342913A1, “GENES PROVIDING TOLERANCE TO PDS INHIBITORS” (SYNGENTA PARTICIPATIONS AG, priority 2013, published 2014).

Test system: 18900 transformants (soybean plants)
Experiment: Herbicide resistance of soybean transformants with stacked ADSS Q289N gene
Format: in vivo
Settings: soybean transformed with 18900 (Rhodobacter CrtI + Arabidopsis ADSS Q289N)
Description: In order to test expression of stacked genes when phytoene desaturease is used as selectable marker, we constructed several vectors with Anemonia majano cyan fluorescent protein gene AmCyan and herbicide resistance (ADSS) or detoxification (cytochrome P450) genes as examples. Binary transformation vector 18340 (FIG. 7) contains Gloeobacter CrtI expression cassette linked to an AmCyan expression cassette. 18340 was derived from insertion of prCMP-AmCyan-tNOS cassette into 18239. Similarly, binary transformation vector 18341 (FIG. 8) contains Rhodobacter CrtI and AmCyan expression cassettes and was constructed by inserting the prCMP-AmCyan-tNOS cassette into 18238. 18900 (FIG. 9) is a binary vector containing Rhodobacter CrtI expression cassette linked with an Arabidopsis adenylosuccinate synthase (ADSS) Q289N mutant expression cassette under the control of prCMP promoter. 18932 (FIG. 10) is a binary vector containing Rhodobacter CrtI expression cassette and an expression cassette for rice cytochrome P450 monooxygenase gene (Genbank accession # OSJNBb0048A17.18) under the control of prCMP promoter. […]
Binary vectors 18340, […], 18900 and 18932 were transformed into soybean plants using norfurazon as selection agent. […] 18932 transformants were evaluated for their resistance against HPPD herbicide mesotrione.

O=C1NC(=O)[C@]2(N1)O[C@H](CO)[C@@H](O)[C@H]2O [hydantocidin]
resistance of transformants to herbicidal compound: resistant
